Format in all cases: in vivo
Assay [1] has as its system Boll Weevil (Anthonomus grandis). The experiment in a line: Test B.2 Control of boll weevil, eggs on sprayed insect diet in 24-well microtiter plates. The following applies: 5 days. The procedure:
Test B.2 Control of Boll Weevil (Anthonomus grandis)
For evaluating control of boll weevil (Anthonomus grandis) the test unit consisted of 24-well-microtiter plates containing an insect diet and 20-30 A. grandis eggs.
The compounds or mixtures were formulated using a solution containing 75% water and 25% DMSO. Different concentrations of formulated compounds or mixtures were sprayed onto the insect diet at 20 μl, using a custom built micro atomizer, at two replications.
(§1) For experimental mixtures in these tests identical volumes of both mixing partners at the desired concentrations respectively, were mixed together.
After application, microtiter plates were incubated at about 23±1° C. and about 50±5% RH for 5 days. Egg and larval mortality was then visually assessed.

The test system of assay [2] is Yellow fever mosquito (Aedes aegyptii). The experiment in a line: Test B.4 Control of yellow fever mosquito, curative ultrasonic spraying of larvae in liquid diet. The following applies: 2 DAT. The procedure:
Test B.4 Control of Yellow fever mosquito (Aedes aegyptii) Test principle: Curative ultrasonic spraying of larvae in liquid diet
For evaluating control of Aedes aegyptii, the assay was conducted in microtiter plates (MTP's), wherein each well was filled with 0.2 ml of a Aedes aegyptii suspension of 5 to 15 freshly hatched larvae in a liquid diet of 200 ppm yeast in water, prepared directly before spraying.
The compounds were formulated at desired concentration using a solution containing 75% v/v water and 25% v/v DMSO. Different concentrations of formulated compounds were applied at 2.5 μl, using a ultrasonic spraying, at two replications.
The MTPs were sealed with the matching lids in a climatized test chamber at about 28° C.+1° C. and about 80+5% RH (relative humidity) and at 3500+500 lux of fluorescent light.
Assessment was made 2 days after treatment (DAT) using as criterion movement of the larvae. Valid assessment values were at level 0, 50 and 100, wherein 100 indicates no movement, 50 indicates few movement and 0 indicates moderate to high movement.

Another assay has as its system Caenorhabditis elegans. The experiment in a line: Test B.5 Control of Caenorhabditis elegans, curative ultrasonic spraying of nematodes in liquid diet. The following applies: 4 DAT. On the procedure:
Test B.5 Control of Caenorhabditis elegans Test principle: Curative ultrasonic spraying of nematodes in liquid diet
For evaluating control of Caenorhabditis elegans the test unit consisted of microtiter plates (MTP), wherein each well was filled with 0.18 ml of a C. Elegans suspension containing 60 to 100 individuals of C. elegans at mixed life stages in a liquid diet.
The compounds were formulated at desired concentration using a solution containing 75% v/v water and 25% v/v DMSO. Different concentrations of formulated compounds were applied at 5 μl by ultrasonic spraying onto the liquid diet, at two replications. After application, the treated microtiterplates were incubated in a climatized test chamber at temperature of about 18+/−1° C. and 70+/−5% RH in the dark.
Assessment was made 4 days after treatment (DAT) using as criterion movement of nematodes. Valid assessment values were at level 0, 50 and 100, wherein 100 indicates no movement, 50 indicates few movement and 0 indicates moderate to high movement.

Assay [3] deals with Green Peach Aphid (Myzus persicae). The experiment in a line: Test B.3 Control of green peach aphid, systemic, liquid artificial diet under membrane. The following applies: 3 days.
Description: Test B.3 Control of Green Peach Aphid (Myzus persicae)
For evaluating control of green peach aphid (Myzus persicae) through systemic means the test unit consisted of 96-well-microtiter plates containing liquid artificial diet under an artificial membrane.
The compounds or mixtures were formulated using a solution containing 75% water and 25% DMSO. Different concentrations of formulated compounds or mixtures were pipetted into the aphid diet, using a custom built pipetter, at two replications.
as §1
After application, 5 -8 adult aphids were placed on the artificial membrane inside the microtiter plate wells. The aphids were then allowed to suck on the treated aphid diet and incubated at about 23±1° C. and about 50±5% RH for 3 days. Aphid mortality and fecundity was then visually assessed.

Assay [4] concerns Tobacco Budworm (Heliothis virescens). The experiment in a line: Test B.6 Control of tobacco budworm, eggs on sprayed insect diet in 96-well microtiter plates. The following applies: 5 days. The procedure: Test B.6 Control of Tobacco Budworm (Heliothis virescens)
For evaluating control of tobacco budworm (Heliothis virescens) the test unit consisted of 96-well-microtiter plates containing an insect diet and 15-25 H. virescens eggs.
The compounds or mixtures were formulated using a solution containing 75% water and 25% DMSO. Different concentrations of formulated compounds or mixtures were sprayed onto the insect diet at 10 μl, using a custom built micro atomizer, at two replications.
as §1
After application, microtiter plates were incubated at 28±1° C., 80±5% RH for 5 days. Egg and larval mortality was then visually assessed.

For assay [5], the system named is Vetch Aphid (Megoura viciae). The experiment in a line: Test B.1 Control of vetch aphid, sprayed broad bean leaf disks in 24-well microtiter plates. The following applies: 5 days. On the procedure:
Test B.1 Control of Vetch Aphid (Megoura viciae)
For evaluating control of vetch aphid (Megoura viciae) through contact or systemic means the test unit consisted of 24-well-microtiter plates containing broad bean leaf disks.
The compounds or mixtures were formulated using a solution containing 75% water and 25% DMSO. Different concentrations of formulated compounds or mixtures were sprayed onto the leaf disks at 2.5 μl, using a custom built micro atomizer, at two replications.
For experimental mixtures in these tests identical volumes of both mixing partners at the desired concentrations respectively, were mixed together. After application, the leaf disks were air-dried and 5-8 adult aphids placed on the leaf disks inside the microtiter plate wells. The aphids were then allowed to suck on the treated leaf disks and incubated at about 23±1° C. and about 50±5% RH (relative humidity) for 5 days. Aphid mortality and fecundity was then visually assessed.

Setting [6] is: alpha cypermethrin alone, 10 ppm.
[7] abbreviates: alphacypermethrin alone, 0.4 ppm.

`Cc1cc(F)c(-n2cnc3ccccc3c2=O)cc1[S+]([O-])CC(F)(F)F` (stereo not drawn) [CE.I.35, 2-(2,2,2-trifluoroethylsufinyl)-4-(4-oxo-quinazolin-3-yl)-5-fluoro-toluol]: the Average control % in assay [1] (CE.I.35 alone, 500 ppm) turned out to be 0%; in assay [1] (CE.I.35 alone, 2500 ppm) it was 0%; in assay [2] (CE.I.35 alone, 4 ppm) it was 0%; in assay [2] (CE.I.35 alone, 500 ppm), 0%; in assay [2] (CE.I.35 alone, 2500 ppm), 0%.
In assay [2] (abamectin alone, 2 ppm), abamectin came in with an Average control % of 0%.
spinosad had an Average control % in assay [2] (spinosad alone, 2 ppm) of 0%.
For the compound `CCOCn1c(-c2ccc(Cl)cc2)c(C#N)c(Br)c1C(F)(F)F` [Chlorfenapyr, chlorfenapyr], in the assay with Caenorhabditis elegans (chlorfenapyr alone, 10 ppm), the Average control % was 0%.
In the case of `CC1(C)C(C=C(Cl)Cl)C1C(=O)OC(C#N)c1cccc(Oc2ccccc2)c1` (stereo not drawn) [Alpha cypermethrin, alpha-cypermethrin], the Average control % in assay [3] (setting [6]) is listed as 0%; in assay [4] (setting [7]), 0%; in assay [5] (alpha cypermethrin alone, 2 ppm), 0%; in assay [1] (setting [6]), 0%; in assay [1] (setting [7]), 0%; in assay [2] (setting [6]) it was 0%.
In assay [4] (CE.I.31 alone, 2000 ppm), `Cc1cc(F)c(-n2cnc3ccc(F)cc3c2=O)cc1[S+]([O-])CC(F)(F)F` (stereo not drawn) [CE.I.31, 6-Fluoro-3-[2-fluoro-4-methyl-5-2(2,2,2-trifluoroethanesulfinyl)-phenyl]-3H-quinazolin-4-one] registered an Average control % of 0%.
On to `Cc1cc(C)c(C2=C(OC(=O)CC(C)(C)C)C3(CCCC3)OC2=O)c(C)c1` [Spiromesifen, spiromesifen], for which the Average control % in assay [1] (spiromesifen alone, 500 ppm) is 0%.
As to `Cc1cc(F)c(-n2cnc3ccccc3c2=O)cc1SCC(F)(F)F` [CE.I.34, 2-(2,2,2-trifluoroethylsufanyl)-4-(4-oxo-quinazolin-3-yl)-5-fluoro-toluol], the Average control % in assay [3] (CE.I.34 alone, 4 ppm) is 0%; in the assay on Caenorhabditis elegans (CE.I.34 alone, 100 ppm), 0%; in assay [5] (CE.I.34 alone, 100 ppm), 0%; in assay [1] (CE.I.34 alone, 100 ppm) it was 0%.
Consider `CCC(C)(C)C(=O)OC1=C(c2ccc(Cl)cc2Cl)C(=O)OC12CCCCC2` [Spirodiclofen, spirodiclofen], for which the Average control % in assay [4] (spirodiclofen alone, 3.2 ppm) was found to be 0%.

Source of the values: patent US20140221201A1, “INSECTICIDAL ACTIVE MIXTURES COMPRISING ARYLQUINAZOLINONE COMPOUNDS” (priority 2011, published 2014).
